Data as given in patent publication US9745295B2, “Thiazole-substituted aminoheteroaryls as spleen tyrosine kinase inhibitors” (Merck Sharp & Dohme Corp., priority 2013, dated 2017).

Biological target: T1, recombinant human GST-SYK (Homo sapiens, UniProt P43405)
T1 construct: purchased Carna Biosciences 08-176
Assay: Homogeneous Time-Resolved Fluorescence (HTRF) assay for the recombinant human Syk enzyme
Type: biochemical
Settings: recombinant human GST-SYK 5 pM, ATP 25 μM, read-out: rhSYK IC50
Protocol: Homogeneous Time-Resolved Fluorescence (HTRF) Assay for the Recombinant Human Syk Enzyme
A recombinant GST-hSYK fusion protein was used to measure potency of compounds to inhibit human Syk activity. The recombinant human GST-SYK (Carna Biosciences #08-176) (5 pM final concentration) was incubated with various concentrations of the inhibitor diluted in DMSO (0.1% final concentration) for 10 minutes at room temperature in 15 mM Tris-HCl (pH 7.5), 0.01% tween 20, 2 mM DTT in 384 well plate format. To initiate the reaction the biotinylated substrate peptide (250 nM final concentration) that contains the phosphorylation site for Syk was added with magnesium (5 mM final concentration) and ATP (25 μM final concentration). Final volume of the reaction was 10 μL. Phosphorylation of the peptide was allowed to proceed for 45′ at room temperature. To quench the reaction and detect the phosphorylated product, 2 nM of a Europium-anti-phosphotyrosine antibody (Perkin Elmer #AD0161) and 70 nM SA-APC (Perkin-Elmer #CR130-100) were added together in 15 mM Tris pH 7.5, 40 mM EDTA, 0.01% tween 20. Final volume of the quenching solution was 10 μL.
The resulting HTRF signal was measured after 30 minutes on an EnVision (Perkin-Elmer) reader using a time-resolved fluorescence protocol. Table A below lists activities as IC50 values (nM) for representative compounds of the invention.

Row | SMILES | IC50 [nM]
1 | CCc1cc(Nc2cc(C)cc(-c3cnc(C4(O)CCCc5cc(C(=O)O)ccc54)s3)n2)ncn1 (single isomer, unassigned) [Example 2.11, (R or S)-5-(5-{6-[(6-ethylpyrimidin-4-yl)amino]-4-methylpyridin-2-yl}-1,3-thiazol-2-yl)-5-hydroxy-5,6,7,8-tetrahydronaphthalene-2-carboxylic acid] | 0.0649
2 | COc1cc(Nc2cc(C)cc(-c3cnc([C@@]4(O)CC[C@H](C(N)=O)C(C)(C)C4)s3)n2)ncn1 (single isomer, unassigned) [Example 3.1, (1S,4R or 1R,4S)-4-Hydroxy-4-(5-{6-[(6-methoxypyrimidin-4-yl)amino]-4-methylpyridin-2-yl}-1,3-thiazol-2-yl)-2,2-dimethylcyclohexanecarboxamide] | 2.5
3 | Cc1cnnc(Nc2cc(C)cc(-c3cnc([C@@]4(O)CC[C@H](C(=O)O)C(C)(C)C4)s3)n2)c1 (single isomer, unassigned) [Example 3.3, (1S,4R or 1R,4S)-4-hydroxy-2,2-dimethyl-4-(5-{4-methyl-6-[(5-methylpyridazin-3-yl)amino]pyridin-2-yl}-1,3-thiazol-2-yl)cyclohexanecarboxylic acid] | 182
4 | COc1cc(Nc2cc(C)cc(-c3cnc(C4(O)CCC(C(=O)O)C(C)(C)C4)s3)n2)ncn1 (single isomer, unassigned) [Example 3.4, (1S,4R or 1R,4S)-4-hydroxy-4-(5-{6-[(6-methoxypyrimidin-4-yl)amino]-4-methylpyridin-2-yl}-1,3-thiazol-2-yl)-2,2-dimethylcyclohexane-carboxylic acid] | 2.32
5 | Cc1cc(Nc2cc(C(F)(F)F)ncn2)nc(-c2cnc(C3(O)CCC(C(N)=O)C(C)(C)C3)s2)c1 (single isomer, unassigned) [Example 3.5, (1S,4R or 1R,4S)-4-hydroxy-2,2-dimethyl-4-[5-(4-methyl-6-{[6-(trifluoromethyl)pyrimidin-4-yl]amino}pyridin-2-yl)-1,3-thiazol-2-yl]cyclohexanecarboxamide] | 0.562
6 | CC1(C)CC(O)(c2ncc(-c3cccc(Nc4cc(C(F)(F)F)ncn4)n3)s2)CCC1C(=O)O (single isomer, unassigned) [Example 3.6, (1S,4R or 1R,4S)-4-hydroxy-2,2-dimethyl-4-[5-(6-{[6-(trifluoromethyl)pyrimidin-4-yl]amino}pyridin-2-yl)-1,3-thiazol-2-yl]cyclohexanecarboxylic acid] | 0.517
7 | CC1(C)CC(O)(c2ncc(-c3cccc(Nc4cc(C(F)(F)F)ncn4)n3)s2)CCC1C(=O)O (single isomer, unassigned) [Example 3.7, (1S,4R or 1R,4S)-4-hydroxy-2,2-dimethyl-4-[5-(6-{[6-(trifluoromethyl)pyrimidin-4-yl]amino}pyridin-2-yl)-1,3-thiazol-2-yl]cyclohexanecarboxylic acid] | 4.54
8 | Cc1cc(Nc2cnccn2)nc(-c2cnc([C@@]3(O)CC[C@H](C(=O)O)C(C)(C)C3)s2)c1 (single isomer, unassigned) [Example 3.8, (1S,4R or 1R,4S)-4-hydroxy-2,2-dimethyl-4-{5-[4-methyl-6-(pyrazin-2-ylamino)pyridin-2-yl]-1,3-thiazol-2-yl}cyclohexanecarboxylic acid] | 0.608
9 | Cc1cc(Nc2nccc(C)n2)cc(-c2cnc([C@@]3(O)CC[C@H](C(=O)O)C(C)(C)C3)s2)n1 (single isomer, unassigned) [Example 4.3, (1S,4R or 1R, 4S)-4-hydroxy-2,2-dimethyl-4-(5-{6-methyl-4-[(4-methylpyrimidin-2-yl)amino]pyridin-2-yl}-1,3-thiazol-2-yl)cyclohexanecarboxylic acid] | 22.1
10 | CCCCOC(=O)[C@H]1CC[C@H](C(C)(O)c2ncc(-c3cc(Nc4nccc(C(F)(F)F)n4)cc(C)n3)s2)CC1 (single isomer, unassigned) [Example 4.6, butyl (trans)-4-((R or S)-1-hydroxy-[5-(6-methyl-4-{[4-(trifluoromethyl)pyrimidin-2-yl]amino}pyridin-2-yl)-1,3-thiazol-2-yl]ethyl}cyclohexane carboxylate] | 375
